In PubChem BioAssay (NCI):
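A five-concentration, 48-hour dose response in 96-well plates underlies each endpoint, interpolated linearly between surrounding concentrations. TGI: total growth inhibition.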

Key:
Assay in all cases: NCI tumour cell line growth inhibition, 48 h
[1] = test system: SW-620 colon
[2] = test system: SNB-75 CNS
[3] = test system: SF-295 CNS
[4] = test system: MDA-MB-231 breast
[5] = test system: A549 NSCLC
[6] = test system: HCT-15 colon
[7] = test system: MCF7 breast
[8] = test system: SK-MEL-28 melanoma
[9] = test system: BT-549 breast
[10] = test system: CAKI-1 renal
[11] = test system: ACHN renal
[12] = test system: MDA-MB-435
[13] = test system: DU-145 prostate
[14] = test system: NCI-H460 lung
[15] = test system: UACC-62 melanoma
[16] = test system: EKVX NSCLC
[17] = test system: NCI-H23 lung
[18] = test system: HL-60(TB) leukemia
[19] = test system: NCI/ADR-RES ovarian
[20] = test system: UO-31 renal

Row | SMILES | TGI [1] [µM] | TGI [2] [µM] | TGI [3] [µM] | TGI [4] [µM] | TGI [5] [µM] | TGI [6] [µM] | TGI [7] [µM] | TGI [8] [µM] | TGI [9] [µM] | TGI [10] [µM] | TGI [11] [µM] | TGI [12] [µM] | TGI [13] [µM] | TGI [14] [µM] | TGI [15] [µM] | TGI [16] [µM] | TGI [17] [µM] | TGI [18] [µM] | TGI [19] [µM] | TGI [20] [µM]
1 | Cc1c(-c2ccc(O)cc2)n(CCCCCCNCCOC(=O)NCCCc2ccc(N(CCCl)CCCl)cc2)c2ccc(O)cc12 | 5.37 | 14.1 | 6.85 | 3.38 | 3.93 | 3.56 | 2.23 | 13.8 | 26.7 | 25.7 | 14.1 | 3.21 | 3.97 | 5.05 | 3.26 | 9.89 | 3.45 | – | – | –
2 | CC1=CC(=O)[C@@H](O)[C@]2(C)[C@H]3[C@@]4(O)OC[C@]35[C@H]([C@@H](C)[C@H]4O)[C@@H](OC(=O)C(C)(C)CO)C(=O)O[C@@H]5C[C@@H]12 | > 27.6 | 2.11 | 1.71 | – | 41.5 | 3.1 | > 100 | > 100 | 0.423 | 9.88 | 1.33 | 1.65 | – | 0.547 | 0.86 | 15.1 | 0.0869 | > 100 | 51.3 | 2.44
3 | CCCCS(=O)(=O)CCC(N)P(=O)(O)O (stereo not given) | > 100 | > 100 | > 100 | – | > 100 | > 100 | > 100 | > 100 | > 100 | > 100 | > 100 | > 100 | > 100 | > 100 | > 100 | > 100 | > 100 | > 100 | > 100 | > 100
4 | CC1=NN(c2nc(N)nc(/C(C#N)=C/c3ccccc3O)n2)C(C)(C)C1 | – | – | 30.7 | 40.7 | 31.5 | 38.6 | 64.9 | 30.8 | 67.7 | 36.9 | 34.5 | 32.9 | 32 | 40.9 | 33.5 | 37.5 | 34.5 | 65.3 | 47 | 36.5
5 | COC1(c2ccc(Cl)cc2)SC=C(C)n2c1noc2=O (stereo not given) | > 100 | – | > 100 | – | > 100 | > 100 | > 100 | > 100 | > 100 | > 100 | > 100 | > 100 | > 100 | > 100 | > 100 | > 100 | > 100 | > 100 | 94.9 | > 100
6 | S=C(N1CCN(c2ccc(Cl)c(Cl)c2)CC1)N1CCN(c2ccc(Cl)c(Cl)c2)CC1 | 33.8 | – | 22.2 | 21.2 | 37.9 | 28.8 | 24 | 28.7 | 30.4 | 20.4 | 27.4 | 29 | 28.1 | – | 28.8 | 15.2 | 29.7 | – | 30.3 | 25.8
7 | O=[N+]([O-])c1cccc2nc3ccccc3c(NCCCCNc3c4ccccc4nc4cccc([N+](=O)[O-])c34)c12 | 0.174 | 1.83 | 1.02 | – | > 33.2 | 1.02 | 0.412 | 0.522 | 1.79 | 0.168 | 0.0913 | – | 0.133 | 0.0574 | 0.302 | 2.11 | 0.159 | 0.0246 | 2.71 | 0.398
8 | CCOC(=O)c1c(SC(=O)c2ccc(C(C)(C)C)cc2)n(-c2ccccc2)c(=S)n(-c2ccccc2)c1=O | > 100 | > 100 | > 100 | > 100 | > 100 | > 100 | > 100 | > 100 | – | > 100 | > 100 | > 100 | > 100 | > 100 | > 100 | > 100 | > 100 | > 100 | > 100 | –
9 | COc1cc(-c2ccc(Br)[nH]2)[nH]c1C=NCC(C)C | – | 9.45 | 3.67 | 6.64 | 3.62 | 3.15 | 2.47 | 7.67 | – | 7.64 | 4.19 | 4.54 | 2.9 | 7.92 | 7.33 | 2.03 | 4.14 | 3.9 | – | 4.77
10 | C/C=C/C(C#N)(/C=C/c1ccccc1)OP1(=O)OC(c2ccccc2)C(C)N1C (stereo not given) | 39.2 | 39.4 | 31 | 34.9 | 45.4 | – | 49.4 | 32.7 | – | 54.8 | 68.7 | 34.9 | 90.1 | 33.8 | 34.5 | 44.5 | – | 32.9 | – | 32.6
11 | C=CC[C@H]1O[Si](C(C)(C)C)(C(C)(C)C)[C@H](C)[C@H]1C | > 100 | > 100 | > 100 | > 100 | > 100 | > 100 | > 100 | > 100 | > 100 | > 100 | > 100 | > 100 | – | – | > 100 | > 100 | > 100 | > 100 | > 100 | > 100
12 | Cc1nnc2n1N=C(c1ccccc1)/C(=C/c1ccc(-c3ccc(Cl)cc3)o1)S2 | 47.7 | – | 49.9 | 33 | 49.4 | 31.3 | > 100 | – | 32.2 | 29.4 | 26.3 | 22.3 | 38.9 | 34.2 | 29.1 | 53.3 | 36.4 | 28.4 | – | 26.5
13 | O=C(NC(=S)Nc1ccc(Br)cc1)c1ccc2c(c1)Sc1ccccc1S2 | > 100 | 29.2 | 38.6 | 38.2 | 48.6 | > 100 | > 100 | > 100 | 60.6 | 38.2 | 34.2 | > 100 | 32.4 | 32.3 | 74.8 | – | 45.4 | 42.7 | 55.9 | 26.6
14 | CN1Cc2ccccc2S(=O)(=O)n2cccc2C1=O | > 100 | > 100 | > 100 | > 100 | > 100 | > 100 | > 100 | > 100 | > 100 | > 100 | > 100 | > 100 | > 100 | > 100 | > 100 | > 100 | – | > 100 | – | > 100
15 | CCCN(CCC)CCc1ccc(OC2=CCN(C)CC2)cc1 | > 100 | – | > 100 | > 100 | > 100 | > 100 | > 100 | 91.7 | > 100 | > 100 | > 100 | > 100 | > 100 | – | > 100 | > 100 | > 100 | > 100 | > 100 | 88.3
16 | Cc1cccc2oc3c(CC(=O)O)cccc3c(=O)c12 | > 100 | – | > 100 | > 100 | > 100 | > 100 | > 100 | > 100 | > 100 | > 100 | > 100 | > 100 | > 100 | > 100 | – | > 100 | > 100 | > 100 | > 100 | > 100
17 | S=c1nc2sc3c(c2c(Nc2ccc(Cl)cc2)[nH]1)CCCC3 | > 100 | – | > 100 | > 100 | – | > 100 | > 100 | > 100 | > 100 | > 100 | > 100 | > 100 | > 100 | > 100 | > 100 | > 100 | > 100 | > 100 | – | > 100
18 | C1=CC2(C=CC13O[C@H](C1CCCCC1)[C@@H](C1CCCCC1)O3)O[C@H](C1CCCCC1)[C@@H](C1CCCCC1)O2 | > 50 | > 50 | > 50 | > 50 | > 50 | > 50 | > 50 | > 50 | > 50 | > 50 | > 50 | > 50 | > 50 | > 50 | > 50 | – | > 50 | > 50 | > 50 | > 50
19 | CC(=O)Nc1oc(C)c(C)c1S(=O)(=O)c1ccc(Cl)cc1 | > 100 | > 100 | > 100 | – | > 100 | > 100 | > 100 | > 100 | 89.3 | – | > 100 | > 100 | > 100 | > 100 | > 100 | > 100 | > 100 | > 100 | > 100 | > 100
20 | Cc1ccc(S(=O)(=O)NC(=O)NC(CC(N)=O)C(=O)O)cc1 (stereo not given) | > 100 | > 100 | > 100 | > 100 | > 100 | > 100 | > 100 | > 100 | > 100 | – | > 100 | – | > 100 | > 100 | > 100 | – | > 100 | > 100 | > 100 | > 100
